Assay [1] in a line: Body weight, food intake, serum parameters and adiposity in normal C57BL/6J mice. The class given is in vivo. How it is done:
(§1) FIG. 4. Effects of prieurianin on blood insulin, glucose and NEFA levels. Normal and ob/ob mice were treated with 5 mg/kg of prieurianin and serum samples were then collected for (FIG. 4A) insulin; (FIG. 4B) glucose; and (FIG. 4C) non-esterified fatty acid (NEFA) profiling. Results are means of three animals per group for each treatment. Blue column, normal C57BL/6J; and red column, leptin-deficient ob/ob mice.
(§2) Prieurianin was administered intraperitoneally to 12-14 week-old normal C57BL/6J mice and the genetically leptin-deficient ob/ob mice (2 or 5 mg/kg) twice a week for two weeks. Controls received equivolume injections of drug vehicle. Body weight and food intake were measured every three days, and blood samples were collected at the end of the experiment.
(§3) Obesity contributes to hypertension, high serum cholesterol, low HDL cholesterol, and hyperglycemia, thus potentially leading to higher risk of cardiovascular disease. Abdominal obesity especially correlates with metabolic risk factors. The leptin-deficient ob/ob mice are hyperlipidemic, and hyperglycemic. To test whether prieurianin altered the metabolic or endocrinological parameters in addition to appetite, the serum lipid profile, insulin and glucose levels were measured.
(§4) To further examine the effects of prieurianin on the adiposity of the normal C57BL/6J and the ob/ob mice, we measured their visceral and subcutaneous body fat.

Assay [2] is described as follows: Body weight, food intake, serum parameters and adiposity in leptin-deficient ob/ob mice. It is filed as in vivo. How it is done:
as §1
FIG. 5. Effects of prieurianin on adiposity in ob/ob mice. The leptin-deficient ob/ob mice were treated with 5 mg/kg of prieurianin and subcutaneous and visceral adipose tissues were excised and weighed. Results are means of three to five animals per group as indicated (n).
as §2, §3, §4

Turning to `C=C1[C@@H]([C@@]2(C)[C@@H](OC(C)=O)CC(=O)O[C@](C)(COC(C)=O)[C@@H]2C(=O)OC)[C@@H](OC=O)[C@H](OC(=O)[C@H](O)[C@H](C)CC)[C@@]2(C)[C@H](c3ccoc3)CC(=O)[C@]12O` [prieurianin], in assay [1] (normal C57BL/6J mice), the food intake entry is listed as “reduced food intake”, the glucose levels entry is “did not alter the insulin or the glucose levels significantly”, the insulin levels result is listed as “did not alter the insulin or the glucose levels significantly” and the “serum PLTP activity” value is “increase in serum PLTP activity”. In assay [1] (normal C57BL/6J mice, 2 or 5 mg/kg i.p. twice a week, two weeks), the body weight result is reported as “modest body weight loss”. The percent body fat entry in assay [1] (normal C57BL/6J mice, any dose) is “not significantly altered”. In assay [1] (normal mice), the NEFA levels entry is on record as “decrease in NEFA levels” and the leptin levels result was “decrease in leptin levels”. Besides, in assay [1] (normal mice, serum), the HDL levels entry is reported as “remained relatively unchanged”, the total cholesterol level entry is recorded as “remained relatively unchanged” and the triglyceride levels entry is given as “no significant changes”. The “serum PLTP activity” value in assay [2] is “decrease in serum PLTP activity”. Further, in assay [2] (5 mg/kg), the NEFA levels entry is listed as “only a modest decrease in NEFA levels”; the “hyperglycemia (glucose level)” value was “reversed to levels comparable to those of normal controls”; the insulin levels result was “reduce by approximately three to four-fold”; the “subcutaneous and visceral adipose tissues” value is “significantly reduced both the subcutaneous and visceral adipose tissues”. Moreover, the “decrease in food intake” value in assay [2] (5 mg/kg group, relative to untreated or vehicle treated controls) is given as no more than 50%. The “reduction of total body fat” value in assay [2] (5 mg/kg, vs untreated and vehicle-treated controls) was “greater than 50%”. For the same molecule, in assay [2] (2 or 5 mg/kg i.p. twice a week, after two weeks), the “reduction in total body weight” value is recorded as “up to 10%”. In addition, in assay [2] (serum), the total cholesterol level entry is reported as “significantly lower” and the triglyceride levels result is recorded as “no significant changes”. Besides, the HDL levels entry in assay [2] (vs untreated and vehicle-treated) is “approximately two-fold lower”.

The record behind these values is patent US20100284925A1, “Small Molecule Intervention for Obesity” (priority 2006, published 2010).
